Laboratory results: PubChem BioAssay AID256 (DTP/NCI, 2004)
Several values for one entry are separate records, joined by “and”; a condition that tells them apart may be missing. Equal values may be shown once. Inconclusive results and toxic doses are left out. How the source made its calls: active means survival T/C of 150% or more; inactive means T/C below 125% in these data.

System: CD2F1 mice, L1210 leukemia ip, survival T/C
Experiment: NCI In Vivo Anticancer Drug Screen. Data for tumor model L1210 Leukemia (intraperitoneal) in CD2F1 (CDF1) mice
Settings: higher = longer survival
Outline: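 Mice carrying a transplanted tumor received test compound or vehicle alone. The value is the measurement in the treated group divided by that in the vehicle-treated control group.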

[1] = endpoint: mean survival time, dose: 100.0 mg/kg/injection, schedule: Q01DX009 (ip), vehicle: saline with Tween-80
[2] = endpoint: mean survival time, dose: 200.0 mg/kg/injection, schedule: Q01DX009 (ip), vehicle: saline with Tween-80
[3] = endpoint: mean survival time, dose: 400.0 mg/kg/injection, schedule: Q01DX009 (ip), vehicle: saline with Tween-80
[4] = endpoint: mean survival time, dose: 100.0 mg/kg/injection, schedule: Q04DX003 (ip), vehicle: saline with Tween-80
[5] = endpoint: mean survival time, dose: 200.0 mg/kg/injection, schedule: Q04DX003 (ip), vehicle: saline with Tween-80
[6] = endpoint: mean survival time, dose: 400.0 mg/kg/injection, schedule: Q04DX003 (ip), vehicle: saline with Tween-80
[7] = endpoint: median survival time, dose: 50.0 mg/kg/injection, schedule: Q01DX009 (ip), vehicle: Klucel (hydroxypropylcellulose) (HPC)
[8] = endpoint: median survival time, dose: 100.0 mg/kg/injection, schedule: Q01DX009 (ip), vehicle: Klucel (hydroxypropylcellulose) (HPC)

Measured: T/C

CC1CC(C)(C)CC2CC(C(=O)O)(C(=O)O)CC12 (centres undefined)
inactive: endpoint: mean survival time, dose: 100.0 mg/kg/injection, schedule: Q04DX003 (ip), vehicle: saline sonified 102 % of control | endpoint: mean survival time, dose: 200.0 mg/kg/injection, schedule: Q04DX003 (ip), vehicle: saline sonified 96 % of control | endpoint: mean survival time, dose: 400.0 mg/kg/injection, schedule: Q04DX003 (ip), vehicle: saline sonified 100 % of control

O=C(O)CCC(=O)Nc1ccccc1C(=O)O
inactive: [1] 102 % of control | [2] 93 % of control | [3] 96 % of control

O=[N+]([O-])c1ncn[nH]1
inactive: [1] 111 % of control | [2] 100 % of control | [3] 92 % of control

CC(O)C1=CC(c2ccccc2)(c2ccccc2)c2ccccc21 (centres undefined)
inactive: endpoint: mean survival time, dose: 100.0 mg/kg/injection, schedule: Q01DX001 (ip), vehicle: saline with Tween-80 95 % of control | endpoint: mean survival time, dose: 200.0 mg/kg/injection, schedule: Q01DX001 (ip), vehicle: saline with Tween-80 91 % of control | endpoint: mean survival time, dose: 400.0 mg/kg/injection, schedule: Q01DX001 (ip), vehicle: saline with Tween-80 88 % of control

CC(NC(=O)C(CSCc1ccccc1)NC(=O)OCc1ccccc1)C(=O)OCc1ccccc1 (centres undefined)
inactive: [4] 96 % of control | [5] 98 % of control | [6] 93 % of control

S=C(NNC(=S)Nc1ccc(Cl)cc1)NNc1ccccc1
inactive: endpoint: mean survival time, dose: 50.0 mg/kg/injection, schedule: Q01DX009 (ip), vehicle: acetone 95 % of control | endpoint: mean survival time, dose: 100.0 mg/kg/injection, schedule: Q01DX009 (ip), vehicle: acetone 97 % of control

C=CCOc1cc2c(cc1C(C)c1ccc(OC)cc1)OCO2 (centres undefined)
inactive: endpoint: median survival time, dose: 25.0 mg/kg/injection, schedule: Q01DX009 (ip), vehicle: Klucel (hydroxypropylcellulose) (HPC) 100 % of control and 103 % of control | endpoint: median survival time, dose: 50.0 mg/kg/injection, schedule: Q01DX005 (ip), vehicle: Klucel (hydroxypropylcellulose) (HPC) 94 % of control | [7] 120 % of control and 101 % of control and 104 % of control | endpoint: median survival time, dose: 50.0 mg/kg/injection, schedule: Q01DX009 (ip), vehicle: saline with Tween-80 105 % of control | endpoint: median survival time, dose: 100.0 mg/kg/injection, schedule: Q01DX005 (ip), vehicle: Klucel (hydroxypropylcellulose) (HPC) 103 % of control | [8] 105 % of control and 110 % of control | endpoint: median survival time, dose: 100.0 mg/kg/injection, schedule: Q01DX009 (ip), vehicle: saline with Tween-80 107 % of control | endpoint: median survival time, dose: 200.0 mg/kg/injection, schedule: Q01DX005 (ip), vehicle: Klucel (hydroxypropylcellulose) (HPC) 108 % of control | endpoint: median survival time, dose: 400.0 mg/kg/injection, schedule: Q01DX005 (ip), vehicle: Klucel (hydroxypropylcellulose) (HPC) 118 % of control | endpoint: median survival time, dose: 400.0 mg/kg/injection, schedule: Q01DX009 (ip), vehicle: saline with Tween-80 124 % of control | endpoint: median survival time, dose: 800.0 mg/kg/injection, schedule: Q01DX005 (ip), vehicle: Klucel (hydroxypropylcellulose) (HPC) 95 % of control | endpoint: median survival time, dose: 800.0 mg/kg/injection, schedule: Q01DX009 (ip), vehicle: saline with Tween-80 98 % of control

CCCCNCCN(CC)CC
inactive: endpoint: mean survival time, dose: 25.0 mg/kg/injection, schedule: Q01DX009 (ip), vehicle: saline with Tween-80 94 % of control | endpoint: mean survival time, dose: 25.0 mg/kg/injection, schedule: Q04DX003 (ip), vehicle: saline 94 % of control | endpoint: mean survival time, dose: 50.0 mg/kg/injection, schedule: Q01DX009 (ip), vehicle: saline with Tween-80 96 % of control | endpoint: mean survival time, dose: 50.0 mg/kg/injection, schedule: Q04DX003 (ip), vehicle: saline 89 % of control | [1] 93 % of control | endpoint: mean survival time, dose: 100.0 mg/kg/injection, schedule: Q04DX003 (ip), vehicle: saline 97 % of control

COc1cc(CO)ccc1OCc1ccccc1
inactive: [4] 98 % of control | [5] 96 % of control | [6] 105 % of control

O=C1OC(c2ccccc2)CC1N1CCCCC1 (centres undefined)
inactive: endpoint: mean survival time, dose: 6.25 mg/kg/injection, schedule: Q01DX009 (ip), vehicle: saline sonified 92 % of control | endpoint: mean survival time, dose: 12.5 mg/kg/injection, schedule: Q01DX009 (ip), vehicle: saline sonified 101 % of control | endpoint: mean survival time, dose: 25.0 mg/kg/injection, schedule: Q01DX009 (ip), vehicle: saline sonified 105 % of control

O=N[O-].O=N[O-].[Co].[NH2-].[NH2-].[NH2-].[NH2-]
inactive: endpoint: mean survival time, dose: 25.0 mg/kg/injection, schedule: Q04DX002 (ip), vehicle: saline with Tween-80 93 % of control | endpoint: mean survival time, dose: 50.0 mg/kg/injection, schedule: Q04DX002 (ip), vehicle: saline with Tween-80 101 % of control | endpoint: mean survival time, dose: 100.0 mg/kg/injection, schedule: Q04DX002 (ip), vehicle: saline with Tween-80 101 % of control

Nc1ncnc2nc(CCCCc3ccccc3)[nH]c12
inactive: endpoint: mean survival time, dose: 3.0 mg/kg/injection, schedule: Q01DX009 (ip), vehicle: saline with Tween-80 95 % of control | endpoint: mean survival time, dose: 6.0 mg/kg/injection, schedule: Q01DX009 (ip), vehicle: saline with Tween-80 106 % of control | endpoint: mean survival time, dose: 12.0 mg/kg/injection, schedule: Q01DX009 (ip), vehicle: saline with Tween-80 104 % of control

CNCc1c[nH]c(=O)[nH]c1=O
inactive: [4] 102 % of control | [5] 98 % of control | [6] 94 % of control

Cc1ccc(S(=O)(=O)OCOS(=O)(=O)c2ccc(C)cc2)cc1
inactive: [7] 113 % of control | [8] 107 % of control and 111 % of control | endpoint: median survival time, dose: 200.0 mg/kg/injection, schedule: Q01DX009 (ip), vehicle: Klucel (hydroxypropylcellulose) (HPC) 122 % of control and 112 % of control | endpoint: median survival time, dose: 800.0 mg/kg/injection, schedule: Q01DX009 (ip), vehicle: Klucel (hydroxypropylcellulose) (HPC) 124 % of control and 103 % of control

C1CCN(P(N2CCCCC2)N2CCCCC2)CC1
inactive: endpoint: mean survival time, dose: 100.0 mg/kg/injection, schedule: Q04DX002 (ip), vehicle: saline 92 % of control | endpoint: mean survival time, dose: 200.0 mg/kg/injection, schedule: Q04DX002 (ip), vehicle: saline 92 % of control

[Co+2].[NH-]c1ccccc1C(=O)O.[NH-]c1ccccc1C(=O)O
inactive: [4] 89 % of control | [5] 91 % of control | [6] 91 % of control

CCOP(OCC)SSCn1nc2ccc3ccccc3n2c1=O
inactive: endpoint: mean survival time, dose: 12.5 mg/kg/injection, schedule: Q01DX009 (ip), vehicle: Klucel (hydroxypropylcellulose) (HPC) 100 % of control | endpoint: mean survival time, dose: 25.5 mg/kg/injection, schedule: Q01DX009 (ip), vehicle: Klucel (hydroxypropylcellulose) (HPC) 95 % of control | endpoint: mean survival time, dose: 50.0 mg/kg/injection, schedule: Q01DX009 (ip), vehicle: Klucel (hydroxypropylcellulose) (HPC) 113 % of control

Cc1cn(C2CC(O)C(CO)O2)c(=O)nc1NC1CC1 (centres undefined)
inactive: endpoint: median survival time, dose: 12.5 mg/kg/injection, schedule: Q01DX005 (ip), vehicle: water 102 % of control | endpoint: median survival time, dose: 25.0 mg/kg/injection, schedule: Q01DX005 (ip), vehicle: water 102 % of control | endpoint: median survival time, dose: 50.0 mg/kg/injection, schedule: Q01DX005 (ip), vehicle: water 104 % of control | endpoint: median survival time, dose: 100.0 mg/kg/injection, schedule: Q01DX005 (ip), vehicle: water 103 % of control | endpoint: median survival time, dose: 200.0 mg/kg/injection, schedule: Q01DX005 (ip), vehicle: water 102 % of control

CC(=O)Oc1ccc(C2NNC3(O)C(=O)N(C4CCCCC4)CC23)cc1 (centres undefined)
inactive: [4] 90 % of control | [5] 94 % of control | [6] 98 % of control

COc1ccc(C=C2C(=O)C=CC2=O)cc1OC
inactive: endpoint: mean survival time, dose: 5.0 mg/kg/injection, schedule: Q04DX002 (ip), vehicle: saline with Tween-80 103 % of control | endpoint: mean survival time, dose: 10.0 mg/kg/injection, schedule: Q04DX002 (ip), vehicle: saline with Tween-80 103 % of control

O=C(CBr)Nc1cc([N+](=O)[O-])ccc1O
inactive: endpoint: mean survival time, dose: 6.25 mg/kg/injection, schedule: Q01DX009 (ip), vehicle: saline with Tween-80 91 % of control | endpoint: mean survival time, dose: 12.5 mg/kg/injection, schedule: Q01DX009 (ip), vehicle: saline with Tween-80 98 % of control
